Data published in patent publication US20230055237A1, “COMPOUNDS AND METHODS FOR THE TREATMENT OF CYSTIC FIBROSIS” (Flatley Discovery Lab, LLC, priority 2019, published 2023).

Target: T1, CFTR (Homo sapiens, UniProt P13569, DEL508-508)
T1 construct: Primary CF airway epithelial cells were obtained from the UNC Cystic Fibrosis Tissue Procurement and Cell Culture Core; host or cells: primary CF airway epithelial cells, differentiated at the air-liquid interface
Assay: Equivalent current assay in primary CF airway epithelial cells (NAUC, combination with 1st site corrector FDL169 or VX-809)
Type: cell-based
Conditions: 37° C., 24 h

[1] = test compound 3 μM in combination with 1st site corrector VX-809 (3 μM)
[2] = test compound 10 μM in combination with 1st site corrector VX-809 (3 μM)
[3] = test compound 1 μM in combination with 1st site corrector VX-809 (3 μM)
[4] = test compound 1 μM in combination with 1st site corrector FDL169 (3 μM)
[5] = test compound 3 μM in combination with 1st site corrector FDL169 (3 μM)
[6] = test compound 10 μM in combination with 1st site corrector FDL169 (3 μM)

T1 sequence (P13569 with tags, fused parts or gaps DEL508-508): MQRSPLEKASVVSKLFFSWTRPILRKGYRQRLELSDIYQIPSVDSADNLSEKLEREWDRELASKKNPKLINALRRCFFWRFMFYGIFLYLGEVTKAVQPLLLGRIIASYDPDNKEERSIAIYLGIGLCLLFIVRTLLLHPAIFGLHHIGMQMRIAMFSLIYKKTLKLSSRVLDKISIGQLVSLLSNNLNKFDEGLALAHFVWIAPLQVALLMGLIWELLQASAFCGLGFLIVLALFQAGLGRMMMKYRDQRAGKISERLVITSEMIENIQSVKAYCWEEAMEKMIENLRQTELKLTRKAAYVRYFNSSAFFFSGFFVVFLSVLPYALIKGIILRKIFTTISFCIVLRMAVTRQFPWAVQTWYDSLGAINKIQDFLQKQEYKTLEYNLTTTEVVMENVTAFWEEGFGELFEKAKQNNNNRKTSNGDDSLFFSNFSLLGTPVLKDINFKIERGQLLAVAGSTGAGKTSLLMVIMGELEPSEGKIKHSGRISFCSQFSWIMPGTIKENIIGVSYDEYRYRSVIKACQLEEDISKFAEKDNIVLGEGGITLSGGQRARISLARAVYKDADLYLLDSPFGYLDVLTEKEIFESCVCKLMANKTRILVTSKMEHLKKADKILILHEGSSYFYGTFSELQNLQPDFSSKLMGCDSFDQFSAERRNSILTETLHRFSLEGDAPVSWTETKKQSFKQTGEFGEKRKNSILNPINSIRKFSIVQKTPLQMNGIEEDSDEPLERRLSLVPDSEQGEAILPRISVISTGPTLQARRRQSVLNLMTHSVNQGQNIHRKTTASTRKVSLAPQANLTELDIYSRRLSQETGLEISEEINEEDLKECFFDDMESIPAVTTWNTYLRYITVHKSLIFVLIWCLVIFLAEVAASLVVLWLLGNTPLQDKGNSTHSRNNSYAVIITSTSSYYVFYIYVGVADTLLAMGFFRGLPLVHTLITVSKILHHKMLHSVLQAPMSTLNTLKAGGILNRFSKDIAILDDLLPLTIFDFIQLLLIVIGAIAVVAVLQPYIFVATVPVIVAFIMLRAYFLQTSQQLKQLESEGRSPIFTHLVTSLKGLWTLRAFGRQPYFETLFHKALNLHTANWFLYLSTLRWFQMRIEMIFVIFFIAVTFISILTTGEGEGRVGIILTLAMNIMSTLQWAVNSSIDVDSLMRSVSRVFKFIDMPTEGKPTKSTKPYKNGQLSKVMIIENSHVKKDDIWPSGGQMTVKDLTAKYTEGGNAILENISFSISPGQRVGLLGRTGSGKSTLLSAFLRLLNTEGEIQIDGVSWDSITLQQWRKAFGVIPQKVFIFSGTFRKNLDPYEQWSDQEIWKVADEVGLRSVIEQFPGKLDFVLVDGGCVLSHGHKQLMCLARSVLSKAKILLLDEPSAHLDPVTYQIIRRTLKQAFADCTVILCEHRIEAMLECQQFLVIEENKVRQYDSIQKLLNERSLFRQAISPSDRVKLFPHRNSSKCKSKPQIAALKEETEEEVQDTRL

Structure (SMILES) | Nauc @ 3 μM [1] | Nauc @ 10 μM [2] | Nauc @ 1 μM [3] | Nauc @ 1 μM [4] | Nauc @ 3 μM [5] | Nauc @ 10 μM [6]
CC(C)(C)c1cccc(CCNC(=O)C2C3CC(F)(F)CN3C3(C(=O)Nc4c(Cl)cc(Cl)cc43)C2C(=O)O)c1 (racemic) [Example 44, (1′R,2′S,3R,7a′R)-1′-((3-(tert-butyl)phenethyl)carbamoyl)-5,7-dichloro-6′,6′-difluoro-2-oxo-1′,2′,5′,6′,7′,7a′-hexahydrospiro[indoline-3,3′-pyrrolizine]-2′-carboxylic acid] | +++ (NAUC “+++” refers to an observed NAUC>170% of positive control) | +++ (NAUC “+++” refers to an observed NAUC>170% of positive control) |  |  |  | 
COc1cc(C(F)(F)F)cc(NC(=O)C2C3CC(F)(F)CN3C3(C(=O)Nc4c(Cl)cc(Cl)cc43)C2C(=O)O)n1 (single isomer, unassigned) [Example 80.7b.2, 5,7-dichloro-6′,6′-difluoro-1′-((6-methoxy-4-(trifluoromethyl)pyridin-2-yl)carbamoyl)-2-oxo-1′,2′,5′,6′,7′,7a′-hexahydrospiro[indoline-3,3′-pyrrolizine]-2′-carboxylic acid] |  | + (NAUC “+” refers to an observed NAUC <140% of positive control) |  |  |  | 
O=C(Nc1cc(Cl)cc(Cl)c1)C1C(C(F)(F)c2ccccc2C(F)(F)F)NC2(C(=O)Nc3c(Cl)cc(Cl)cc32)C1C(=O)O (stereo not shown) [Example 69.b] | +++ (NAUC “+++” refers to an observed NAUC>170% of positive control) | ++ (NAUC “++” refers to an observed NAUC 170-140% of positive control) | ++ (NAUC “++” refers to an observed NAUC 170-140% of positive control) |  |  | 
O=C(O)[C@H]1[C@@H](C(=O)N(c2cc(Cl)cc(Cl)c2)C2CC(O)C2)[C@H]2CC(F)(F)CN2[C@]12C(=O)Nc1c(Cl)cc(Cl)cc12 (stereo partly shown) [Example 159] |  |  |  | + (NAUC “+” refers to an observed NAUC <140% of positive control) | + (NAUC “+” refers to an observed NAUC <140% of positive control) | 
O=C(Nc1cc(Cl)cc(Cl)c1)C1CN(CC(F)(F)F)C2(C(=O)Nc3c(Cl)cc(Cl)cc32)C1C(=O)O (stereo not shown) [Example 79c] | + (NAUC “+” refers to an observed NAUC <140% of positive control) | + (NAUC “+” refers to an observed NAUC <140% of positive control) | + (NAUC “+” refers to an observed NAUC <140% of positive control) |  |  | 
COc1cc(C(F)(F)F)cc(NC(=O)C2C3CC(F)(F)CN3C3(C(=O)Nc4c(Cl)cc(Cl)cc43)C2C(=O)O)n1 (single isomer, unassigned) [Example 80.7a.1, 5,7-dichloro-6′,6′-difluoro-1′-((6-methoxy-4-(trifluoromethyl)pyridin-2-yl)carbamoyl)-2-oxo-1′,2′,5′,6′,7′,7a′-hexahydrospiro[indoline-3,3′-pyrrolizine]-2′-carboxylic acid] |  | + (NAUC “+” refers to an observed NAUC <140% of positive control) |  |  |  | 
Cn1cc2cc(NC(=O)[C@H]3[C@H]4CC(F)(F)CN4[C@]4(C(=O)Nc5c(Cl)cc(Cl)cc54)[C@H]3C(=O)O)ccc2n1 [Example 143] |  |  |  | + (NAUC “+” refers to an observed NAUC <140% of positive control) | + (NAUC “+” refers to an observed NAUC <140% of positive control) | 
CC(C)(C)CN(C(=O)[C@H]1[C@H]2CC3(CC3)CN2[C@]2(C(=O)Nc3c(Cl)cc(Cl)cc32)[C@H]1C(=O)O)c1cc(Cl)cc(Cl)c1 (single isomer, unassigned) [Example 275.7a] |  |  |  | +++ (NAUC “+++” refers to an observed NAUC>170% of positive control) | +++ (NAUC “+++” refers to an observed NAUC>170% of positive control) | +++ (NAUC “+++” refers to an observed NAUC>170% of positive control)
COc1cc(C(F)(F)F)cc(NC(=O)C2C3C[C@@](O)(C(F)(F)F)CN3C3(C(=O)Nc4c(Cl)cc(Cl)cc43)C2C(=O)O)n1 (stereo partly shown) [Example 22] | ++ (NAUC “++” refers to an observed NAUC 170-140% of positive control) | +++ (NAUC “+++” refers to an observed NAUC>170% of positive control) |  |  |  | 
CC(C)C1NC2(C(=O)Nc3c(Cl)cc(Cl)cc32)C(C(=O)O)C1C(=O)Nc1cc(Cl)cc(Cl)c1 (stereo not shown) [Example 33] | +++ (NAUC “+++” refers to an observed NAUC>170% of positive control) | +++ (NAUC “+++” refers to an observed NAUC>170% of positive control) |  |  |  | 
CN(O)C(=O)C1C(C(=O)Nc2cc(Cl)cc(Cl)c2)C2CC(F)(F)CN2C12C(=O)Nc1c(Cl)cc(Cl)cc12 (single isomer, unassigned) [Example 225a, 5,7-dichloro-N1′-(3,5-dichlorophenyl)-6′,6′-difluoro-N2′-hydroxy-N2′-methyl-2-oxo-1′,2′,5′,6′,7′,7a′-hexahydrospiro[indoline-3,3′-pyrrolizine]-1′,2′-dicarboxamide] | + (NAUC “+” refers to an observed NAUC <140% of positive control) | +++ (NAUC “+++” refers to an observed NAUC>170% of positive control) | + (NAUC “+” refers to an observed NAUC <140% of positive control) |  |  | 
Cc1nn(-c2ccccc2)cc1N(CC1CC1)C(=O)[C@H]1[C@H]2CC(F)(F)CN2[C@]2(C(=O)Nc3c(Cl)cc(Cl)cc32)[C@H]1C(=O)O [Example 167] |  |  |  | + (NAUC “+” refers to an observed NAUC <140% of positive control) | + (NAUC “+” refers to an observed NAUC <140% of positive control) | 
O=C(Nc1cc(Cl)c(OC(F)F)c(Cl)c1)C1C2CCCN2C2(C(=O)Nc3c(Cl)cc(Cl)cc32)C1C(=O)O (stereo not shown) [Example 19] | ++ (NAUC “++” refers to an observed NAUC 170-140% of positive control) | +++ (NAUC “+++” refers to an observed NAUC>170% of positive control) |  |  |  | 
CN(C(=O)[C@H]1[C@H]2CCCN2[C@]2(C(=O)Nc3c(Cl)cc(Cl)cc32)[C@H]1C(=O)O)c1cc(Cl)cc(Cl)c1 [Example 266] | +++ (NAUC “+++” refers to an observed NAUC>170% of positive control) | +++ (NAUC “+++” refers to an observed NAUC>170% of positive control) | + (NAUC “+” refers to an observed NAUC <140% of positive control) |  |  | 
O=C(Nc1ccccc1-c1ccccc1)[C@H]1[C@H]2CC(F)(F)CN2[C@]2(C(=O)Nc3c(Cl)cc(Cl)cc32)[C@H]1C(=O)O [Example 121] | +++ (NAUC “+++” refers to an observed NAUC>170% of positive control) | ++ (NAUC “++” refers to an observed NAUC 170-140% of positive control) | +++ (NAUC “+++” refers to an observed NAUC>170% of positive control) |  |  | 
CN(C(=O)C1C2CC(F)(F)CN2C2(C(=O)Nc3c(Cl)cc(Cl)cc32)C1C(=O)O)c1cc(Cl)cc(Cl)c1 (stereo not shown) [Example 57] | +++ (NAUC “+++” refers to an observed NAUC>170% of positive control) | +++ (NAUC “+++” refers to an observed NAUC>170% of positive control) |  |  |  | 
CC(C)(C)c1cccc(C2CC2NC(=O)[C@H]2[C@H]3CC(F)(F)CN3C3(C(=O)Nc4c(Cl)cc(Cl)cc43)[C@H]2C(=O)O)c1 (stereo partly shown) [Example 272] | + (NAUC “+” refers to an observed NAUC <140% of positive control) | ++ (NAUC “++” refers to an observed NAUC 170-140% of positive control) | + (NAUC “+” refers to an observed NAUC <140% of positive control) |  |  | 
CC(=O)OCOC(=O)[C@@H]1[C@@H](C(=O)N(C)c2cc(Cl)cc(Cl)c2)[C@H]2CC(F)(F)CN2[C@]12C(=O)Nc1c(Cl)cc(Cl)cc12 (single isomer, unassigned) [Example 256a] |  | +++ (NAUC “+++” refers to an observed NAUC>170% of positive control) |  |  |  | 
O=C(Nc1cc(Cl)cc(Cl)c1F)C1C2CCCN2C2(C(=O)Nc3c(Cl)cc(Cl)cc32)C1C(=O)O (stereo not shown) [Example 37] | +++ (NAUC “+++” refers to an observed NAUC>170% of positive control) | +++ (NAUC “+++” refers to an observed NAUC>170% of positive control) |  |  |  | 
CC(C)(C)CN(C(=O)[C@H]1[C@H]2CC(C)(C)CN2C2(C(=O)Nc3c(Cl)cc(Cl)cc32)[C@H]1C(=O)O)c1cc(Cl)cc(Cl)c1 (single isomer, unassigned) [Example 274.6a, (1′R,2′S,7a′R)-5,7-dichloro-1-((3,5-dichlorophenyl)(neopentyl)carbamoyl)-6′,6′-dimethyl-2-oxo1′,2′,5′,6′,7′,7a′-hexahydrospiro[indoline-3,3′-pyrrolizine]-2′-carboxylic acid] |  |  |  | ++ (NAUC “++” refers to an observed NAUC 170-140% of positive control) | + (NAUC “+” refers to an observed NAUC <140% of positive control) | + (NAUC “+” refers to an observed NAUC <140% of positive control)
CC(=O)N1C(C(C)C)C(C(=O)Nc2cc(Cl)cc(Cl)c2)C(C(=O)O)C12C(=O)Nc1c(Cl)cc(Cl)cc12 (stereo not shown) [Example 38] | + (NAUC “+” refers to an observed NAUC <140% of positive control) | ++ (NAUC “++” refers to an observed NAUC 170-140% of positive control) |  |  |  | 
O=C(Nc1cc(Cl)cc(Cl)c1)C1C(C(F)(F)c2cccnc2)NC2(C(=O)Nc3c(Cl)cc(Cl)cc32)C1C(=O)O (stereo not shown) [Example 74.a] |  | + (NAUC “+” refers to an observed NAUC <140% of positive control) |  |  |  | 
CC(C)(CO)c1cccc(CCNC(=O)[C@H]2[C@H]3CC(F)(F)CN3C3(C(=O)Nc4c(Cl)cc(Cl)cc43)[C@H]2C(=O)O)c1 (stereo partly shown) [Example 293] |  | + (NAUC “+” refers to an observed NAUC <140% of positive control) |  |  |  | 
